One molecule from publication PMC12348844, “Anti-Trypanosoma cruzi Potential of New Pyrazole-Imidazoline Derivatives” (Molecules, 2025) can be followed below.

Common to all, as to type: cell-based
Data set [1] is described as follows: Cytotoxicity assay, Vero cells (CellTiter-Glo). The following applies: African green monkey, mean ± SD. As for the experimental part:
Vero cells, obtained from the Rio de Janeiro Cell Bank (BCRT code 0245) and maintained through weekly subculturing with a dissociation solution containing 0.25% trypsin-EDTA, initiated once the monolayer reached an 80–100% confluence. Following harvesting, the cells were washed and resuspended in RPMI 1640 medium enriched with 10% fetal bovine serum (FBS). Cultures were maintained at 37 °C in a 5% CO2-humidified incubator. These cultures were used for drug screening assays and for producing culture-derived trypomastigotes of T. cruzi.
Cytotoxicity assays were performed using Vero cells, which were seeded at a density of 1.5 × 10^4 cells per well in white 96-well plates with clear bottoms. Following a 24 h adhesion period, the cultures were incubated at 37 °C in a 5% CO2 atmosphere. […] After 72 h of incubation, cell viability was assessed by adding CellTiter-Glo reagent (Promega Corporation, Madison, WI, USA), which induces cell lysis and reacts with the released ATP to produce luminescence. The resulting luminescence was measured using a Glomax Multi-Detection plate reader (Promega Corporation, Madison, WI, USA). The half-maximal inhibitory concentration (CC50) for cell viability was then calculated using GraphPad Prism software version 8.2.1.
(ATP-based viability assays read luminescence as a measure of living cells.)

Data set [2] is described as follows: Cytotoxicity in 3D cardiac spheroids (CellTiter-Glo). The following applies: Swiss Webster, mouse, 3D cardiac spheroids from fetal heart muscle cells, 15.6 to 500 µM. The method, then:
Three-dimensional (3D) heart muscle cell cultures were obtained as previously described. Briefly, heart muscle cells were isolated from 18-day-old Swiss Webster mouse fetuses. The ventricular tissue was fragmented and enzymatically dissociated using a trypsin and collagenase type II solution. The isolated cells were seeded at a density of 2.5 × 10^4 cells/well in 96-well U-bottom microplates previously coated with 1% agarose. The cells were cultured in Dulbecco’s modified Eagle Medium (DMEM) enriched with 10% FBS, 2.5 mM CaCl2, 1 mM L-glutamine, 2% chicken embryo extract, and a cocktail of antibiotics. The cultures were maintained at 37 °C in a 5% CO2 atmosphere. After a 7-day culture period, the resulting fully developed spheroids were used to assess drug-induced cardiotoxicity and evaluate their efficacy against T. cruzi. […]
The cytotoxicity of the promising candidate was assessed using 3D cardiac spheroids, seeded at 2.5 × 10^4 cells per well. The cultures were treated with a series of concentrations as previously described, and the cell viability was measured using luminescence following the addition of CellTiter-Glo reagent (Promega Corporation, Madison, WI, USA). […] The data shown represents the mean value accompanied by standard deviations, calculated from at least three independent experiments, each performed in duplicate.

Data set [3] has as its system intracellular amastigotes of T. cruzi. Put plainly: Drug combination with Bz, fixed-ratio isobologram, intracellular amastigotes. The following applies: Trypanosoma cruzi; proportion 1k:Bz 5:0, 72 h; read-out: IC50 (Mean ± DP) in combination assay. The method, then:
The isobologram approach assessed the interaction between Bz and the promising candidate in intracellular amastigotes of T. cruzi. Vero cell cultures infected with T. cruzi (Dm28c-Luc) were treated for 72 h with various concentrations of combinations of Bz and the promising candidate, specifically at ratios of 5:0; 4:1; 3:2; 2:3; 1:4 and 0:5. The maximum concentration of each compound was established based on their IC50 values, ensuring both reached the fourth dilution in the serial dilution setup (1:3), culminating in a total of seven dilutions. After 72 h of treatment, parasite viability was measured by luminescence in a Glomax Multi-Detection plate reader (Promega Corporation, Madison, WI, USA) after incubation with luciferin. The IC50 values of each treatment combination were calculated individually, and the fractional inhibitory concentration index (FICI) was derived using the formula FICI = IC50 of the combination/IC50 of the compound alone. The overall FICI (ΣFICI) was calculated by summing the FICIs for both compounds in each combination group, while the average ΣFICI (xΣFICI) represented the overall mean across all combination groups. The xΣFICI values were then employed to classify the interaction as synergistic (xΣFICI ≤ 0.5), additive (0.5 < xΣFICI < 4), or antagonistic (xΣFICI > 4). […]

For the molecule `FC(F)(F)c1ccc(-n2cc(C3=NCCN3)cn2)cc1` [1k, 1-(4-trifluoromethylphenyl)-4-(4,5-dihydro-1H-imidazol-2-yl)-1H-pyrazole], the cytotoxic concentration (CC50) at 72 h in data set [1] was determined as 244 ± 21.1 µM; in data set [2], 173 ± 6.8 µM. In data set [3], the IC50 was 3.75 ± 0.35 µM.

By CC50 is commonly meant the concentration at which the toxic effect on the cells reaches its halfway point. A higher CC50 goes with better tolerance by the cells. In general, IC50 refers to the midpoint of a concentration-inhibition curve.
